Numbers after ± are expanded uncertainties.
Experiments:
[1] = for surface tension liquid-gas: Ring tensiometer; for mass density: 101.33 kPa, Liquid
[2] = xn = mol fraction of the nth substance listed; settings: Ring tensiometer

OCc1ccccc1 [benzenemethanol]
[1]
Settings | mass density [kg/m3] | surface tension liquid-gas [mN/m]
293.15 K | 1045.2 ± 0.6 | 39.05 ± 0.57
298.15 K | 1041.4 ± 0.6 | 38.58 ± 0.56
303.15 K | – | 38.12 ± 0.55
308.15 K | – | 37.63 ± 0.55
313.15 K | – | 37.16 ± 0.54
318.15 K | 1025.8 ± 0.6 | 36.63 ± 0.54
323.15 K | – | 36.18 ± 0.53

OCc1ccccc1 [benzenemethanol] + CCCCO
surface tension liquid-gas [mN/m], [2]
Settings | x2 = 0 | x2 = 0.0034 | x2 = 0.0044 | x2 = 0.0071 | x2 = 0.0117 | x2 = 0.0213 | x2 = 0.0303 | x2 = 0.0492
293.15 K | 39.05 ± 0.57 | 37.89 ± 0.55 | 37.67 ± 0.55 | 37.12 ± 0.54 | 36.88 ± 0.54 | 36.62 ± 0.53 | 36.46 ± 0.53 | 35.94 ± 0.53
298.15 K | 38.58 ± 0.56 | 37.43 ± 0.55 | 37.23 ± 0.54 | 36.67 ± 0.54 | 36.48 ± 0.53 | 36.17 ± 0.53 | 35.99 ± 0.53 | 35.49 ± 0.52
303.15 K | 38.12 ± 0.55 | 36.95 ± 0.54 | 36.79 ± 0.54 | 36.22 ± 0.53 | 36.03 ± 0.53 | 35.68 ± 0.52 | 35.52 ± 0.52 | 35.06 ± 0.51
308.15 K | 37.63 ± 0.55 | 36.5 ± 0.53 | 36.36 ± 0.53 | 35.77 ± 0.52 | 35.6 ± 0.52 | 35.18 ± 0.52 | 35.02 ± 0.51 | 34.64 ± 0.51
313.15 K | 37.16 ± 0.54 | 36.06 ± 0.53 | 35.93 ± 0.53 | 35.33 ± 0.52 | 35.1 ± 0.52 | 34.74 ± 0.51 | 34.57 ± 0.51 | 34.16 ± 0.5
318.15 K | 36.63 ± 0.54 | 35.63 ± 0.52 | 35.51 ± 0.52 | 34.84 ± 0.51 | 34.66 ± 0.51 | 34.27 ± 0.51 | 34.02 ± 0.5 | 33.74 ± 0.5
323.15 K | 36.18 ± 0.53 | 35.24 ± 0.52 | 35.08 ± 0.52 | 34.44 ± 0.51 | 34.18 ± 0.5 | 33.84 ± 0.5 | 33.59 ± 0.5 | 33.35 ± 0.49

OCc1ccccc1 [benzenemethanol] + CCCO
surface tension liquid-gas [mN/m], [2]
Settings | x2 = 0 | x2 = 0.003 | x2 = 0.0062 | x2 = 0.0077 | x2 = 0.0116 | x2 = 0.0212 | x2 = 0.0326 | x2 = 0.0498
293.15 K | 39.05 ± 0.57 | 37.57 ± 0.55 | 37.01 ± 0.54 | 36.88 ± 0.54 | 36.75 ± 0.54 | 36.35 ± 0.53 | 35.95 ± 0.53 | 35.62 ± 0.52
298.15 K | 38.58 ± 0.56 | 37.07 ± 0.54 | 36.62 ± 0.54 | 36.48 ± 0.53 | 36.36 ± 0.53 | 35.98 ± 0.53 | 35.6 ± 0.52 | 35.22 ± 0.52
303.15 K | 38.12 ± 0.55 | 36.6 ± 0.54 | 36.23 ± 0.53 | 36.12 ± 0.53 | 36 ± 0.53 | 35.62 ± 0.52 | 35.3 ± 0.52 | 34.86 ± 0.51
308.15 K | 37.63 ± 0.55 | 36.15 ± 0.53 | 35.84 ± 0.53 | 35.74 ± 0.52 | 35.63 ± 0.52 | 35.23 ± 0.52 | 34.98 ± 0.51 | 34.48 ± 0.51
313.15 K | 37.16 ± 0.54 | 35.64 ± 0.52 | 35.44 ± 0.52 | 35.36 ± 0.52 | 35.2 ± 0.52 | 34.83 ± 0.51 | 34.67 ± 0.51 | 34.14 ± 0.5
318.15 K | 36.63 ± 0.54 | 35.19 ± 0.52 | 35.07 ± 0.52 | 35 ± 0.52 | 34.85 ± 0.51 | 34.5 ± 0.51 | 34.38 ± 0.51 | 33.76 ± 0.5
323.15 K | 36.18 ± 0.53 | 34.73 ± 0.51 | 34.68 ± 0.51 | 34.64 ± 0.51 | 34.44 ± 0.51 | 34.13 ± 0.5 | 34.03 ± 0.5 | 33.41 ± 0.49

CCCCO [butan-1-ol]
[1]
Settings | mass density [kg/m3] | surface tension liquid-gas [mN/m]
293.15 K | 810.4 ± 0.6 | 24.16 ± 0.36
298.15 K | 806.5 ± 0.6 | 23.7 ± 0.36
303.15 K | – | 23.26 ± 0.35
308.15 K | – | 22.78 ± 0.35
313.15 K | – | 22.39 ± 0.34
318.15 K | 790.9 ± 0.6 | 21.99 ± 0.34
323.15 K | – | 21.53 ± 0.33

CCCCO [butan-1-ol] + OCc1ccccc1
[2], x1 = 1
Settings | surface tension liquid-gas [mN/m]
293.15 K | 24.16 ± 0.36
298.15 K | 23.7 ± 0.36
303.15 K | 23.26 ± 0.35
308.15 K | 22.78 ± 0.35
313.15 K | 22.39 ± 0.34
318.15 K | 21.99 ± 0.34
323.15 K | 21.53 ± 0.33

CCC(C)O (centres undefined) [butan-2-ol]
[1]
Settings | mass density [kg/m3] | surface tension liquid-gas [mN/m]
293.15 K | 807.1 ± 0.6 | 23.18 ± 0.35
298.15 K | 802.9 ± 0.6 | 22.74 ± 0.34
303.15 K | – | 22.38 ± 0.34
308.15 K | – | 21.94 ± 0.33
313.15 K | – | 21.56 ± 0.33
318.15 K | 785.5 ± 0.6 | 21.11 ± 0.32
323.15 K | – | 20.76 ± 0.32

CCC(C)O (centres undefined) [butan-2-ol] + OCc1ccccc1
[2], x1 = 1
Settings | surface tension liquid-gas [mN/m]
293.15 K | 23.18 ± 0.35
298.15 K | 22.74 ± 0.34
303.15 K | 22.38 ± 0.34
308.15 K | 21.94 ± 0.33
313.15 K | 21.56 ± 0.33
318.15 K | 21.11 ± 0.32
323.15 K | 20.76 ± 0.32

CCCCCO [pentan-1-ol]
[1]
Settings | mass density [kg/m3] | surface tension liquid-gas [mN/m]
293.15 K | 815.3 ± 1 | 25.69 ± 0.46
298.15 K | 811.6 ± 1 | 25.29 ± 0.45
303.15 K | – | 24.86 ± 0.44
308.15 K | – | 24.49 ± 0.44
313.15 K | – | 24.06 ± 0.43
318.15 K | 796.6 ± 1 | 23.67 ± 0.42
323.15 K | – | 23.3 ± 0.42

CCCCCO [pentan-1-ol] + OCc1ccccc1
[2], x1 = 1
Settings | surface tension liquid-gas [mN/m]
293.15 K | 25.69 ± 0.46
298.15 K | 25.29 ± 0.45
303.15 K | 24.86 ± 0.44
308.15 K | 24.49 ± 0.44
313.15 K | 24.06 ± 0.43
318.15 K | 23.67 ± 0.42
323.15 K | 23.3 ± 0.42

CCCC(C)O (centres undefined) [pentan-2-ol]
[1]
Settings | mass density [kg/m3] | surface tension liquid-gas [mN/m]
293.15 K | 809.8 ± 1 | 23.7 ± 0.43
298.15 K | 805.7 ± 1 | 23.28 ± 0.42
303.15 K | – | 22.87 ± 0.41
308.15 K | – | 22.43 ± 0.41
313.15 K | – | 22.04 ± 0.4
318.15 K | 788.8 ± 1 | 21.6 ± 0.39
323.15 K | – | 21.16 ± 0.39

CCCC(C)O (centres undefined) [pentan-2-ol] + OCc1ccccc1
[2], x1 = 1
Settings | surface tension liquid-gas [mN/m]
293.15 K | 23.7 ± 0.43
298.15 K | 23.28 ± 0.42
303.15 K | 22.87 ± 0.41
308.15 K | 22.43 ± 0.41
313.15 K | 22.04 ± 0.4
318.15 K | 21.6 ± 0.39
323.15 K | 21.16 ± 0.39

CCCO [propan-1-ol]
[1]
Settings | mass density [kg/m3] | surface tension liquid-gas [mN/m]
293.15 K | 803.1 ± 0.7 | 23.73 ± 0.37
298.15 K | 799.3 ± 0.7 | 23.3 ± 0.37
303.15 K | – | 22.9 ± 0.36
308.15 K | – | 22.52 ± 0.36
313.15 K | – | 22.1 ± 0.35
318.15 K | 783.2 ± 0.7 | 21.68 ± 0.35
323.15 K | – | 21.27 ± 0.34

CCCO [propan-1-ol] + OCc1ccccc1
[2], x1 = 1
Settings | surface tension liquid-gas [mN/m]
293.15 K | 23.73 ± 0.37
298.15 K | 23.3 ± 0.37
303.15 K | 22.9 ± 0.36
308.15 K | 22.52 ± 0.36
313.15 K | 22.1 ± 0.35
318.15 K | 21.68 ± 0.35
323.15 K | 21.27 ± 0.34

CC(C)O [propan-2-ol]
[1]
Settings | mass density [kg/m3] | surface tension liquid-gas [mN/m]
293.15 K | 785.1 ± 0.7 | 21.3 ± 0.34
298.15 K | 780.9 ± 0.8 | 20.95 ± 0.34
303.15 K | – | 20.55 ± 0.33
308.15 K | – | 20.2 ± 0.33
313.15 K | – | 19.83 ± 0.32
318.15 K | 763.3 ± 0.8 | 19.47 ± 0.32
323.15 K | – | 19.09 ± 0.31

CC(C)O [propan-2-ol] + OCc1ccccc1
[2], x1 = 1
Settings | surface tension liquid-gas [mN/m]
293.15 K | 21.3 ± 0.34
298.15 K | 20.95 ± 0.34
303.15 K | 20.55 ± 0.33
308.15 K | 20.2 ± 0.33
313.15 K | 19.83 ± 0.32
318.15 K | 19.47 ± 0.32
323.15 K | 19.09 ± 0.31

From the NIST ThermoML archive (doi:10.1021/je0500431)
